# Data reported in US9012507B2, “Lipid-lowering antidiabetic agent” (Thetis Pharmaceuticals LLC, priority 2011, dated 2015).
# How the values were obtained:
# physchem = assay: physchem
# Method: Measurement of the water solubility of the test compounds is accomplished by using methods well known to those skilled in the art. […] The total volume of the solution is measured. […] This is a clear indication of an unexpectedly high degree of bioavailability of the compositions of the invention. Highly water soluble medicinal preparations, when administered orally, result in efficient absorption of such preparations from the gastrointestinal tract into systemic circulation. Such preparations permit rapid absorption into the blood stream resulting in a high concentration of the active agent in the blood. Furthermore, water soluble preparations are especially suitable for parenteral administration, for example, intravenous administration.
# [1] = Air and light sensitivity observed on isolation and storage; type: physicochemical; settings: isolated solid; therefore stored in an amber vial under nitrogen
# Method: The reaction flask was covered in foil to protect it from light. After stirring for 1 h at room temperature, the mixture was chilled to 0° C. for 1 h, and then filtered under an atmosphere of nitrogen. The solid was washed with 50 mL ice-cold acetonitrile and then quickly transferred to a foil-covered round bottom flask and placed under high vac.
SMILES,"solubility (physchem; water, thermodynamic from solid)",times more soluble in water than EPA (physchem; ratio of water solubility versus EPA itself),sensitivity to air and light [1]
"CC/C=C\C/C=C\C/C=C\C/C=C\C/C=C\CCCC(=O)O [EPA, (5Z,8Z,11Z,14Z,17Z)-eicosa-5,8,11,14,17-pentaenoic acid, reference compound]",< 0.2 mg/mL,,
"CC/C=C\C/C=C\C/C=C\C/C=C\C/C=C\CCCC(=O)O.CN(C)C(=N)NC(=N)N [Example 1, {[Amino(imino)methyl]amino}(dimethylamino)methaniminium (5Z,8Z,11Z,14Z,17Z)-eicosa-5,8,11,14,17-pentaenoate]",,≥ 250 times,air and light sensitive
